# Test results taken from patent publication US5017570A, “Dibenzoxazepine compounds useful in the treatment of cerebral vasospasm or its sequela” (Chugai Seiyaku Kabushiki Kaisha, priority 1986, dated 1991).
# Counter-ions that a name gives are not always drawn.
# Tests used:
# basilar artery = test: Vasorelaxation of isolated basilar artery segments; assay type: cell-based, Beagles; conditions: 1 × 10^-5 M; for vasorelaxating action: in words
# Method: Beagles of either sex weighing about 20 kg were anesthetized with i.v. administration of sodium […] (30 mg/kg) and were sacrificed by rapid exsanguination. After the brain was removed, the basilar artery was dissected out under magnification and was sectional in at 2- to 3-mm intervals. […] The segment was initially stretched at a tension of 400 mg for 1 hour with a force-displacement transducer (SB-1T, Nihon Kohden, Tokyo, Japan) during which time the buffer solution was changed several times. […] The total volume of agents never exceeded 25 μl or 5% of the chamber volume and experiments were done in the dark.
# [1] = Experiment for acute toxicity (oral LD50); conditions: mouse, in vivo, 5-week old male CD-1 (ICR) mice
# Method: Nos. 1, 2, 3 and 4 of the present invention were administered orally to 5-week old male CD-1 (ICR) mice and the LD50 values (g/kg) were determined by a routine method.
# [2] = tested on: regional cerebral blood flow (r-CBF); test: r-CBF by hydrogen clearance method in unanesthetized and unrestrained cats; assay type: in vivo, Siamese cats
# Text: The present inventors therefore employed the hydrogen clearance method wherein unanesthetized and unrestrained cats, each having a platinum electrode embedded in the cerebral cortex at four points, i.e., post. sigmoid G., post. sylvian G., mid. ecto-sylvian G. and post. suprasylvian G., and in the deeper area of the brain at three points, i.e., hippocampus, amygdala and hypothalamus, were exposed to a predetermined amount of hydrogen gas in a chamber. Using this method, the effects of compound Nos. 1 and 2 of the present invention on the regional cerebral blood flow (r-CBF) were evaluated. At the same time, analyses of blood pressure, the pH of blood, the gaseous components of the blood, and blood sugar levels were conducted with catheters being embedded in the femoral artery and vein.
# One month before the start of experiment, a platinum electrode was embedded in the cerebral cortex of Siamese cats (both female and male) at four points, i.e., post. sigmoid G., post sylvian G., mid. ecto-sylvian G. and post. suprasylvian G., and in the deeper area of the brain at three points, i.e., hippocampus, amygdala and hypothalamus, the cats being then exposed to a predetermined amount of hydrogen gas in a chamber in an unanesthetized and unrestrained state.
# In order to evaluate the effects of compound Nos. 1 and 2 of the present invention on the regional cerebral blood flow (r-CBF), a predetermined amount of each test compound was administered either perorally (p.o.) in gelatin capsules or by intravenous injection (i.v.) In the latter case, 0.2 mg/kg or 1 mg/kg (body weight) of a selected compound of the present invention was dissolved in a quantity of physiological saline equivalent to 1 ml/kg (body weight) and the total amount of their solution was injected over a period of 10 minutes in a sustained manner through a cannula attached to a vein in the upper thigh; a control (vinpocetine) in an amount equivalent to 1 mg/kg or 5 mg/kg (body weight) was dissolved in a quantity of 10% ascorbic acid equivalent to […] (body weight) and the total amount of the solution was injected over a period of 10 minutes in a sustained manner through a cannula attached to a vein in the upper thigh.
# In the r-CBF analysis, a clearance curve was obtained with a computer (Signal Processor 7T17, product of Nippon Electric Co., Ltd. and Sanei Co., Ltd.), transformed into semi-logarithmic values which were then processed by the initial slope method to calculate all the values of r-CBF. Only values having a coefficient of correlation of at least 0.9 for regression line were used as applicable data and the level of significance was determined by the paired-t test for absolute values, with the values before administration of a test compound being taken as a control. The level of significance for the control group was tested by time-series dispersion analysis.
# [3] = Experiment for subacute toxicity (30 days oral); assay type: in vivo, male rats (F344/crj); conditions: deaths/animals
# Method: Compounds No. 1, IV, VI and VII were administered orally to male rats (F344/crj) at doses of […] body weight daily for 30 days and body weight gain were measured.
# [4] = tested on: cyclic-GMP content in the thoracic aortae; test: cyclic-GMP content in thoracic aorta rings by radioimmunoassay; assay type: cell-based, Sprague-Dawley male rats; conditions: 1×10^-6, 10^-5 or 10^-4 M, 37° C., 30 minutes
# Method: Sprague-Dawley male rats were killed by decapitation, and their thoracic aortae were rapidly removed and immersed in ice-cold Krebs-Henseleit Ringer solution. The blood vessel was cut into rings with a length of about 3 mm and the weight of each wet tissue of the rings was measured. The rings of blood vessels were incubated at 37° C. for 30 minutes in portions of Krebs-Henseleit Ringer solution containing compound No. 1 (1×10^-6, 10^-5 or 10^-4 M) and vinpocetine (10^-4 M) under an atmosphere of 95% O2 - 5% CO2. Trichloroacetic acid (6%) was then added to the solution to stop the reaction and the cyclic-GMP content was determined by radioimunoassay method (YAMASA c-GMP Assay Kit).
# [5] = minus: vasoconstriction, 0: no effect
# [6] = i.v. over 10 minutes, 0.2 mg/kg
smiles,measurement,setting,value
"CCC1Nc2cc(C(=O)O)ccc2Oc2cc(OC)ccc21 (centres unmarked) [No. V, reference compound]",Vasorelaxation,basilar artery; [5],0 mg
CCC1=Nc2cc(C(=O)O)ccc2Oc2cc(OC)ccc21 [Compound No. 2],vasorelaxating action,basilar artery,show vasorelaxating action
same,Vasorelaxation,basilar artery; [5],5.1 mg
same,LD50,[1],4200 to 5000 mg/kg
same,Retention time,"[2]; p.o., 10 mg/kg",< 2 h
same,"Percent increase of r-CBF, 30 min.","[2]; p.o., 10 mg/kg",0.99%
same,"Percent increase of r-CBF, 60 min.","[2]; p.o., 10 mg/kg",9.1%
same,Retention time,"[2]; p.o., 20 mg/kg",> 4 h
same,"Percent increase of r-CBF, 30 min.","[2]; p.o., 20 mg/kg",13.8%
same,"Percent increase of r-CBF, 60 min.","[2]; p.o., 20 mg/kg",19.6%
same,Retention time,"[2]; p.o., 50 mg/kg",> 4 h
same,"Percent increase of r-CBF, 30 min.","[2]; p.o., 50 mg/kg",28.9%
same,"Percent increase of r-CBF, 60 min.","[2]; p.o., 50 mg/kg",22.4%
"CCOC(=O)C1=C[C@]2(CC)CCCN3CCc4c(n1c1ccccc41)[C@@H]32 [Vinpocetine, vinpocetine, reference compound]","Percent increase of r-CBF, 30 min.","[2]; i.v. over 10 minutes, 1 mg/kg",1.0%
same,"Percent increase of r-CBF, 60 min.","[2]; i.v. over 10 minutes, 1 mg/kg",< 2.3%
same,Retention time,"[2]; i.v. over 10 minutes, 5 mg/kg",< 1 h
same,"Percent increase of r-CBF, 30 min.","[2]; i.v. over 10 minutes, 5 mg/kg",-0.9%
same,"Percent increase of r-CBF, 60 min.","[2]; i.v. over 10 minutes, 5 mg/kg",8.3%
same,Retention time,"[2]; p.o., 20 mg/kg",< 1 h
same,"Percent increase of r-CBF, 30 min.","[2]; p.o., 20 mg/kg",12.3%
same,"Percent increase of r-CBF, 60 min.","[2]; p.o., 20 mg/kg",5.2%
"CCOC(=O)c1ccc2c(c1)N=C(c1ccccc1)c1ccc(OC)cc1O2 [No. III, reference compound]",Vasorelaxation,basilar artery; [5],0 mg
"CCC1=Nc2cc(C(=O)O)ccc2Oc2cc(O)ccc21 [No. I, reference compound]",Vasorelaxation,basilar artery; [5],-20.5 mg
CCC1=Nc2cc(C(=O)O)ccc2Oc2cc(C)ccc21 [No. VII],death,[3]; 1000 mg/kg daily for 30 days,5/6
"CCC1=Nc2cc(C(=O)O)ccc2Oc2cc(OC)ccc21 [2 (Na salt), sodium salt of 3-methoxy-11-ethyldibenzo[b,f][1,4]oxazepin-8-carboxylic acid]",Retention time,[2]; [6],> 4 h
same,"Percent increase of r-CBF, 30 min.",[2]; [6],12.1%
same,"Percent increase of r-CBF, 60 min.",[2]; [6],21.0%
same,Retention time,"[2]; i.v. over 10 minutes, 1 mg/kg",> 4 h
same,"Percent increase of r-CBF, 30 min.","[2]; i.v. over 10 minutes, 1 mg/kg",8.1%
same,"Percent increase of r-CBF, 60 min.","[2]; i.v. over 10 minutes, 1 mg/kg",10.0%
"CCOC(=O)c1ccc2c(c1)N=C(CC)c1ccc(OC)cc1O2 [No. IV, reference compound]",Vasorelaxation,basilar artery; [5],0 mg
same,death,[3]; 2000 mg/kg daily for 30 days,4/6
"COc1ccc2c(c1)Oc1ccc(C(=O)O)cc1N=C2C [1 (Na salt), sodium salt of 3-methoxy-11-methyldibenzo[b,f][1,4]oxazepin-8-carboxylic acid]",Retention time,[2]; [6],< 4 h
same,"Percent increase of r-CBF, 30 min.",[2]; [6],9.5%
same,"Percent increase of r-CBF, 60 min.",[2]; [6],13.6%
same,Retention time,"[2]; i.v. over 10 minutes, 1 mg/kg",> 4 h
same,"Percent increase of r-CBF, 30 min.","[2]; i.v. over 10 minutes, 1 mg/kg",13.3%
same,"Percent increase of r-CBF, 60 min.","[2]; i.v. over 10 minutes, 1 mg/kg",14.7%
"COc1ccc2c(c1)Oc1ccc(C(=O)O)cc1N=C2C [Compound No. 1, 3-methoxy-11-methyldibenzo[b,f][1,4]oxazepin-8-carboxylic acid]",vasorelaxating action,basilar artery,show vasorelaxating action
same,Relative Potency (vasorelaxation),"basilar artery; No. 2 = 1.00, minus: vasoconstriction, 0: no effect",49.02
same,Vasorelaxation,basilar artery; [5],250.0 mg
same,cyclic-GMP content in the thoracic aortae,[4],increased dose-dependently
same,LD50,[1],3000 to 3500 mg/kg
same,Retention time,"[2]; p.o., 10 mg/kg",> 4 h
same,"Percent increase of r-CBF, 30 min.","[2]; p.o., 10 mg/kg",12.9%
same,"Percent increase of r-CBF, 60 min.","[2]; p.o., 10 mg/kg",14.4%
same,Retention time,"[2]; p.o., 20 mg/kg",> 4 h
same,"Percent increase of r-CBF, 30 min.","[2]; p.o., 20 mg/kg",11.8%
same,"Percent increase of r-CBF, 60 min.","[2]; p.o., 20 mg/kg",11.0%
same,Retention time,"[2]; p.o., 50 mg/kg",> 4 h
same,"Percent increase of r-CBF, 30 min.","[2]; p.o., 50 mg/kg",14.6%
same,"Percent increase of r-CBF, 60 min.","[2]; p.o., 50 mg/kg",10.0%
"CCOC(=O)c1ccc2c(c1)N=Cc1ccc(C)cc1O2 [No. II, reference compound]",Vasorelaxation,basilar artery; [5],0 mg
